Source: patent publication US20190284192A1, “NITROGENOUS MACROCYCLIC COMPOUND, PREPARATION METHOD THEREFOR, PHARMACEUTICAL COMPOSITION AND APPLICATION THEREOF” (LUOXIN PHARMACEUTICAL (SHANGHAI) CO., LTD., priority 2016, published 2019)
Where a name gives a salt, the structure may show the parent alone.

Tests used:
BRD4 (BD2) = molecular target: T1, BRD4 (BD2) (Homo sapiens, UniProt O60885); test: BRD4 (BD2) bromodomain binding, HTRF; conditions: 2 h incubation at r.t.
T1 construct: Each member comprises two tandem bromodomains (BD1 and BD2) for recognizing the acetylated lysine residues

BRD4 (BD1) = molecular target: T2, BRD4 (BD1) (Homo sapiens, UniProt O60885); test: BRD4 (BD1) bromodomain binding, HTRF; conditions: 2 h incubation at r.t.
T2 construct: Each member comprises two tandem bromodomains (BD1 and BD2) for recognizing the acetylated lysine residues

MV-4-11 cells = test: Inhibitory effect on MV-4-11 cells (CellTiter-Glo); type: cell-based; conditions: Homo sapiens, MV4-11; 72 hours, CellTiter-Glo; read-out: MV-4-11
Experimental: The 1st Day: Seed the Cells on the Plate
1. The cells were verified that they were in good conditions by observation under microscope;
2. The cells were transferred to a 15 mL centrifuge tube, after centrifuged at 1000 rpm for 5 min, the supernatant was discarded;
3. The complete medium (IMDM+10% FBS) was added, then blown and patted into single cell suspension, counted by Vi-cell cytometer, the cell suspension was adjusted to desired cell density by the complete medium.
4. The cells were inoculated into a 96 well plate, the cell number was 15000/well at 100 μL per well, 100 μL complete medium was added into the black control.
5. 37° C., 5% CO2 culture overnight.
The 2nd Day: Addition of the Drugs
1. 1000× Compound Plate Preparation
1.1. The test compound was prepared into 10 mM working solution by using DMSO. Then the STS was prepared into 2 mM working solution by using DMSO.
1.2. In the round bottom 96 wells plate, the column 2 of row A to H was added into 60 μL 10 mM test compound (or STS) working solution, columns 3-11 were added into 40 μL DMSO, 20 μL drug solution was pipetted from the column 2 to the column 3, blown and patted for a homogeneous mixture; then 20 μL solution was pipetted from the column 3 to the column 4, blown and patted for a homogeneous mixture, sequently, the drug was diluted by 3 times, 10 concentrations in total. The columns 1 and 12 were supplemented with 40 μL of DMSO.
2. Intermediate plate areparation
A sterile V-bottom 96 deep well plate was used and in each well, 495 μL FBS-free PRMI 1640 medium was added, then 5 μL of the diluted compound (or DMSO) in the 1000× compound plate was pipetted into corresponding position of the V-bottom 96 well plate, blown and patted evenly.
3.1. The cell plate was taken out from the incubator and was observed under microscope. The diluted compound or DMSO in the intermediate plate was added into the cell plate, 11 μL each well.
3.2. The cell was continued to be cultured at 37° C., 5% CO2 for 72 hours.
The 5th Day: CellTiter-Glo Detection of the Cell Activity
1. The CellTiter-Glo buffer and the reaction substrate were taken out from the refrigerator, after balanced to r.t., the buffer was poured into a brown bottle containing the substrate, the bottle was upside down to have the substrate powder sufficientaly dissolved.
2. The cell was observed under microscope; the cell plate was balanced to r.t.
3. The prepared CellTiter-Glo was added into the 96 well plate, at 100 μL/well.
4. The cell plate was placed on a shaker for 10 min, followed by standing at r.t. for 10 min.
5. A white seal film was attached to the bottom of the well plate, and the chemiluminescence signal of each well was detected by the Enspire microplate detector.
6. XLfit was used for data processing. Inhibition rate %=(d−c)/(d−b)×100, while d is the signal value of the DMSO treated group, c is the signal value of the compound treated group, b is signal value of the blank control that only containing medium and DMSO without cells. The data was fitted using the f(x)205[fit=(A+((B−A)/(1+((C/x)^∧D))))] equation in the XLfit software.

SMILES | IC50 (BRD4 (BD2)) [nM] | IC50 (BRD4 (BD1)) [nM] | IC50 (MV-4-11 cells) [nM]
Cn1cc2c(c1C#N)CCN(c1ccc(F)cc1)c1ccc(CS(C)(=O)=O)cc1-2 [Compound 4004, 6-(4-Fluorophenyl)-2-methyl-9-(methylsulfonylmethyl)-2,4,5,6-tetrahydrobenzo[b]pyrrolo[3,4-d]azepin-3-nitrile] | 184 | 109 | –
Cn1cc2c(cc1=O)CNC(c1ccc(F)cc1)c1ccc(CS(C)(=O)=O)cc1-2 (centres unmarked) [Compound 4008, 7-(4-fluorophenyl)-2-methyl-10-(methylsulfonemethyl)-6,7-dihydro-2H-benzo[c]pyrido[3,4-e]azepin-3(5H)-ketone formate] | 28 | 113 | –
Cn1cc2c(cc1=O)CN=C(c1ccc(Cl)cc1)c1ccccc1-2 [Compound 4010, 7-(4-chlorophenyl)-2-methyl-2H-benzo[c]pyrido[3,4-e]azepin-3(5H)-ketone] | 43 | 30 | 637
COc1ccc2c(c1)-c1cn(C)c(=O)cc1CN=C2c1ccc(F)cc1 [Compound 4019, 7-(4-fluorophenyl)-10-methoxy-2-methyl-2,5-dihydro-3H-benzo[c]pyrido[3,4-e]azepin-3-one] | 37 | 10 | 144
COc1ccc2c(c1)C(c1ccc(F)cc1)=NCc1cc(=O)n(C)cc1-2 [Compound 4020, 7-(4-fluorophenyl)-9-methoxy-2-methyl-2,5-dihydro-3H-benzo[c]pyrido[3,4-e]azepin-3-one] | 10 | 11 | 134
CCS(=O)(=O)Cc1cnc2c(c1)-c1cn(C)c(=O)cc1CN=C2c1ccc(F)cc1 [Compound 4022, 10-((ethylsulfonyl)methyl)-7-(4-fluorophenyl)-2-methyl-2,5-dihydro-3H-dipyrido[2,3-c: 3′,4′-e]azepin-3-ketone] | 7 | 12 | 190
C[C@@H]1N=C(c2ccc(Cl)cc2)c2ccccc2-c2cn(C)c(=O)cc21 [Compound 4025, (S)-7-(4-chlorophenyl)-2,5-dimethyl-2,5-dihydro-3H-benzo[c]pyrido[3,4-e]azepin-3-ketone] | 3 | 7 | 54
CCS(=O)(=O)Cc1cc2c(cn1)C(c1ccc(Cl)cc1)=NCc1cc(=O)n(C)cc1-2 [Compound 4027, 7-(4-chlorophenyl)-10-((ethylsulfonyl)methyl)-2-methyl-2,5-dihydro-3H-dipyrido[3,4-c:3′,4′-e]azepin-3-ketone] | 6 | 12 | 128
CCNC(=O)C[C@@H]1N=C(c2ccc(Cl)cc2)c2ncccc2-c2cn(C)c(=O)cc21 [Compound 4030, (S)-2-(7-(4-chlorophenyl)-2-methyl-3-oxo-3,5-dihydro-2H-dipyrido[2,3-c:3′,4′-e]azepin-5-yl)-N-ethyl acetamide] | 2 | 6 | 17
CCNC(=O)C[C@@H]1N=C(c2ccc(F)cc2)c2cc(OC)c(F)cc2-c2cn(C)c(=O)cc21 [Compound 4036, (S)—N-ethyl-2-(10-fluoro-7-(4-flurophenyl)-9-methoxyl-2-methyl-3-oxo-3,5-dihydro-2H-benzo[c]pyrido[3,4-e]azepin-5-yl)acetamide] | 2 | 5 | –
CCS(=O)(=O)Cc1ccc2c(c1)C(c1ccc(F)cc1)=NCc1cc(=O)n(C)cc1-2 [Compound 4039, 9-((ethylsulfonyl)methyl)-7-(4-flurophenyl)-2-methyl-2,5-dihydro-3H-benzo[c]pyrido[3,4-e]azepin-3-ketone] | 204 | 163 | –
CCS(=O)(=O)Cc1ccc2c(c1)-c1cn(C)c(=O)cc1C1(CC1)N=C2c1ccc(F)cc1 [Compound 4041, 10-((ethylsulfonyl)methyl)-7-(4-flurophenyl)-2-methyl spiro[benzo[c]pyrido[3,4-e]azepin-5,1′-cyclopropane]-3(2H)-ketone] | 12 | 12 | –
CNS(=O)(=O)Nc1ccc2c(c1)-c1cn(C)c(=O)cc1[C@H](C)N=C2c1ccc(F)cc1 [Compound 4050, (S)—N-(7-(4-flurophenyl)-2,5-dimethyl-3-oxo-3,5-dihydro-2H-benzo[c]pyrido[3,4-e]azepin-10-yl)methylamine sulfonamide] | 9 | 17 | –
CCS(=O)(=O)Cc1ccc2c(c1)-c1cn(C)c(=O)cc1CN=C2c1cc(OC)c(F)cc1Cl [Compound 4096, 7-(2-chloro-4-fluoro-5-methoxylphenyl)-10-((ethylsulfonyl)methyl)-2-methyl-2,5-dihydro-3H-benzo[c]pyrido[3,4-e]azepin-3-ketone] | 4 | 44 | –
CCS(=O)(=O)Cc1ccc2c(c1)-c1nn(C)c(=O)cc1C(C)N=C2c1ccc(F)cc1Cl (centres unmarked) [Compound 4097, 7-(2-chloro-4-flurophenyl)-10-((ethylsulfonyl)methyl)-2,5-dimethyl-2,5-dihydro-3H-benzo[c]pyridazino[3,4-e]azepin-3-ketone] | 3 | 20 | –
Cn1cc2c(cc1=O)CN=C(c1ccc(F)cc1Cl)c1ccc(CS(C)(=O)=O)cc1-2 [Compound 4098, 7-(2-chloro-4-flurophenyl)-2-methyl-10-((dimethylfulfone)methyl)-2,5-dihydro-3H-benzo[c]pyrido[3,4-e]azepin-3-ketone] | 3 | 22 | –

Now from value to compound:

IC50 (BRD4 (BD2)) [nM] | IC50 (BRD4 (BD1)) [nM] | IC50 (MV-4-11 cells) [nM] | SMILES
2 | 7 | 75 | CCS(=O)(=O)Cc1ccc2c(c1)-c1cn(C)c(=O)cc1CN=C2c1ccc(Cl)cc1F [Compound 4013, 7-(4-chloro-2-fluorophenyl)-10-((ethylsulfone)methyl)-2-methyl-2,5-dihydro-3H-benzo[c]pyrido[3,4-e]azepin-3-ketone]
1 | 2 | 292 | Cn1cc2c(cc1=O)[C@H](CC(N)=O)N=C(c1ccc(F)cc1)c1ccc(CS(C)(=O)=O)cc1-2 [Compound 4014, (S)-2-(7-(4-fluorophenyl)-2-methyl-10-(methylsulfonylmethyl)-3-oxo-3,5-dihydro-2H-benzo[c]pyrido[3,4-e]azepin-5-yl)acetamide]
1 | 2 | 69 | CCNC(=O)C[C@@H]1N=C(c2ccc(F)cc2)c2ccc(CS(C)(=O)=O)cc2-c2cn(C)c(=O)cc21 [Compound 4015, (S)—N-ethyl-2-(7-(4-fluorophenyl)-2-methyl-10-(methylsulfonemethyl)-3-oxo-3,5-dihydro-2H-benzo[c]pyrido[3,4-e]azepin-5-yl)acetamide]
1 | 2 | 9 | CCS(=O)(=O)Nc1ccc2c(c1)-c1cn(C)c(=O)cc1CN=C2c1ccc(Cl)cc1 [Compound 4024, N-(7-(4-chlorophenyl)-2-methyl-3-oxo-3,5-dihydro-2H-benzo[c]pyrido[3,4-e]azepin-3-yl)ethanesulfonamide]
2 | 22 | 161 | CCS(=O)(=O)Cc1ccc2c(c1)-c1cn(C)c(=O)cc1CN=C2c1ccc(F)cc1Cl [Compound 4028, 7-(2-chloro-4-fluorophenyl)-10-((ethylsulfone)methyl)-2-methyl-2,5-dihydro-3H-benzo[c]pyrido[3,4-e]azepin-3-ketone]
2 | 6 | 69 | Cn1cc2c(cc1=O)[C@H](CC(N)=O)N=C(c1ccc(Cl)cc1)c1ncccc1-2 [Compound 4029, (S)-2-(7-(4-chlorophenyl)-2-methyl-3-oxo-3,5-dihydro-2H-dipyrido[2,3-c:3′,4′-e]azepin-5-yl)acetamide]
1 | 3 | – | CCNC(=O)C[C@@H]1N=C(c2ccc(F)cc2)c2c(ccc(OC)c2F)-c2cn(C)c(=O)cc21 [Compound 4035, (S)—N-ethyl-2-(8-fluoro-7-(4-flurophenyl)-9-methoxyl-2-methyl-3-oxo-3,5-dihydro-2H-benzo[c]pyrido[3,4-e]azepin-5-yl)acetamide]
0.9 | 2 | – | CNS(=O)(=O)Cc1ccc2c(c1)-c1cn(C)c(=O)cc1N(C)N=C2c1ccc(F)cc1 [Compound 4099, 1-(7-(4-flurophenyl)-2,5-dimethyl-3-oxo-3,5-dihydro-2H-benzo[e]pyrido[4,3-c][1,2]diazepin-10-yl)-N-methylmethane sulfamide]
0.7 | 3 | – | CCS(=O)(=O)Cc1ccc2c(c1)-c1cn(C)c(=O)cc1[C@H](C)N=C2c1ccc(F)cc1Cl [Compound 4101, (S)-7-(2-chloro-4-flurophenyl)-10-((ethylsulfonyl)methyl)-2,5-dimethyl-2,5-dihydro-3H-benzo[c]pyrido[3,4-e]azepin-3-ketone]
0.8 | 5 | – | CCS(=O)(=O)Cc1ccc2c(c1)-c1cn(C)c(=O)cc1[C@H](C)N=C2c1cc(OC)c(F)cc1Cl [Compound 4102, (S)-7-(2-chloro-4-fluoro-5-methoxylphenyl)-10-((ethylsulfonyl)methyl)-2,5-dimethyl-2,5-dihydro-3H-benzo[c]pyrido[3,4-e]azepin-3-ketone]
0.6 | 2 | – | CNS(=O)(=O)Cc1ccc2c(c1)-c1cn(C)c(=O)cc1[C@H](C)N=C2c1ccc(F)c(OC)c1 [Compound 4103, (S)-1-(7-(4-fluoro-3-methoxylphenyl)-2,5-dimethyl-3-oxo-3,5-dihydro-2H-benzo[c]pyrido[3,4-e]azepin-10-yl)-N-methylmethane sulfamide]
1 | 2 | – | CCS(=O)(=O)Cc1ccc2c(c1)-c1cn(C)c(=O)cc1[C@H](C)N=C2c1ccc(OC)c(F)c1 [Compound 4104, (S)-10-((ethylsulfonyl)methyl)-7-(3-fluoro-4-methoxylphenyl)-2,5-dimethyl-2,5-dihydro-3H-benzo[c]pyrido[3,4-e]azepin-3-ketone]
1 | 2 | – | CCS(=O)(=O)Cc1ccc2c(c1)-c1cn(C)c(=O)cc1[C@H](C)N=C2c1ccncc1 [Compound 4105, (S)-10-((ethylsulfonyl)methyl)-2,5-dimethyl-7-(pyridin-4-yl)-2,5-dihydro-3H-benzo[c]pyrido[3,4-e]azepin-3-ketone]
